According to ChEMBL document CHEMBL1201862, “PubChem BioAssay data set” (2004):
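In this assay, cells in 96-well plates receive the compound at five concentrations for 48 hours. Endpoints are linearly interpolated between the surrounding concentrations. The concentration for 50% growth inhibition is given as GI50.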 The source made the active and inactive calls. No stated cut-off is given here; in the data, active = GI50 up to about 1.1 µM and inactive = higher.

How the values were obtained:
Test in all cases: DTP human tumour cell line panel, 48 h
[1] = test system: K562
[2] = test system: SF-268
[3] = test system: Malme-3M
[4] = test system: NCI-H23
[5] = test system: UO-31
[6] = test system: HOP-92
[7] = test system: MDA-MB-435
[8] = test system: OVCAR-8
[9] = test system: OVCAR-5
[10] = test system: COLO 205
[11] = test system: A498
[12] = test system: SF-539
[13] = test system: UACC-257
[14] = test system: NCI/ADR-RES
[15] = test system: MOLT-4
[16] = test system: SW-620
[17] = test system: OVCAR-4
[18] = test system: SK-MEL-2
[19] = test system: NCI-H460
[20] = test system: IGROV-1
[21] = test system: DU-145
[22] = test system: T47D
[23] = test system: CCRF-CEM
[24] = test system: HT-29
[25] = test system: M14
[26] = test system: PC-3
[27] = test system: MCF7
[28] = test system: RXF 393
[29] = test system: 786-0
[30] = test system: TK-10
[31] = test system: SK-OV-3
[32] = test system: SK-MEL-28
[33] = test system: BT-549
[34] = test system: UACC-62
[35] = test system: HOP-62
[36] = test system: MDA-N
[37] = test system: HCT-116
[38] = test system: RPMI-8226
[39] = test system: ACHN
[40] = test system: NCI-H226
[41] = test system: HCC 2998
[42] = test system: NCI-H522
[43] = test system: HCT-15
[44] = test system: KM12
[45] = test system: MDA-MB-231
[46] = test system: A549
[47] = test system: U-251
[48] = test system: SR
[49] = test system: SK-MEL-5
[50] = test system: CAKI-1
[51] = test system: OVCAR-3
[52] = test system: SF-295
[53] = test system: SN12C

Compound: FC(F)(Sc1ccccn1)c1nc2ccccc2o1
- GI50 [1]: 60.5 µM (inactive)
- GI50 [2]: > 100 µM (inactive)
- GI50 [3]: > 100 µM (inactive)
- GI50 [4]: > 100 µM (inactive)
- GI50 [5]: 69.7 µM (inactive)
- GI50 [6]: 76.6 µM (inactive)
- GI50 [7]: > 100 µM (inactive)
- GI50 [8]: > 100 µM (inactive)
- GI50 [9]: > 100 µM (inactive)
- GI50 [10]: > 100 µM (inactive)
- GI50 [11]: 38.7 µM (inactive)
- GI50 [12]: > 100 µM (inactive)
- GI50 [13]: > 100 µM (inactive)
- GI50 [14]: 85.3 µM (inactive)
- GI50 [15]: > 100 µM (inactive)
- GI50 [16]: > 100 µM (inactive)
- GI50 [17]: > 100 µM (inactive)
- GI50 [18]: > 100 µM (inactive)
- GI50 [19]: > 100 µM (inactive)
- GI50 [20]: > 100 µM (inactive)
- GI50 [21]: > 100 µM (inactive)
- GI50 [22]: > 100 µM (inactive)
- GI50 [23]: 65.2 µM (inactive)
- GI50 [24]: > 100 µM (inactive)
- GI50 [25]: > 100 µM (inactive)
- GI50 [26]: > 100 µM (inactive)
- GI50 [27]: 55.2 µM (inactive)
- GI50 [28]: > 100 µM (inactive)
- GI50 [29]: > 100 µM (inactive)
- GI50 [30]: > 100 µM (inactive)
- GI50 [31]: > 100 µM (inactive)
- GI50 [32]: > 100 µM (inactive)
- GI50 [33]: 64.1 µM (inactive)
- GI50 [34]: > 100 µM (inactive)
- GI50 [35]: > 100 µM (inactive)
- GI50 [36]: > 100 µM (inactive)
- GI50 [37]: 62.2 µM (inactive)
- GI50 [38]: > 100 µM (inactive)
- GI50 [39]: > 100 µM (inactive)
- GI50 [40]: > 100 µM (inactive)
- GI50 [41]: > 100 µM (inactive)
- GI50 [42]: > 100 µM (inactive)
- GI50 [43]: 55.7 µM
- GI50 [44]: > 100 µM (inactive)
- GI50 [45]: > 100 µM (inactive)
- GI50 [46]: > 100 µM (inactive)
- GI50 [47]: 38.6 µM (inactive)
- GI50 [48]: > 100 µM (inactive)
- GI50 [49]: > 100 µM (inactive)
- GI50 [50]: > 100 µM (inactive)
- GI50 [51]: 61.4 µM (inactive)
- GI50 [52]: > 100 µM (inactive)
- GI50 [53]: > 100 µM (inactive)
